# Measured values: ChEMBL document CHEMBL4765241, “Identification and Preclinical Pharmacology of ((1 R,3 S)-1-Amino-3-(( S)-6-(2-methoxyphenethyl)-5,6,7,8-tetrahydronaphthalen-2-yl)cyclopentyl)methanol (BMS-986166): A Differentiated Sphingosine-1-phosphate Receptor 1 (S1P) Modulator Advanced into Clinical Trials” (J Med Chem, 2019)
# Assays:
# [1] = Pulmonary toxicity in Lewis rat assessed as elevation of BAL protein level at 10 mg/kg by advia1800 chemistry analyzer; assay type: organism-based; conditions: in vivo
# [2] = Clearance in cynomolgus monkey at 1 mg/kg, iv; assay type: ADME, organism-based, Macaca fascicularis; conditions: in vivo
# [3] = Volume of distribution at steady state in Sprague-Dawley rat at 1 mg/kg, po or 1 mg/kg, iv; assay type: ADME, organism-based; conditions: in vivo, read-out: Vdss
# [4] = Volume of distribution at steady state in Beagle dog at 0.3 mg/kg, po or 1 mg/kg, iv; assay type: ADME, organism-based, Canis lupus familiaris; conditions: in vivo, read-out: Vdss
# [5] = Terminal half-life in beagle dog at 1 mg/kg, iv; assay type: ADME, organism-based, Canis lupus familiaris; conditions: in vivo, read-out: beta t1/2 (converted)
# [6] = AUC ratio in orally dosed Beagle dog blood assessed as phosphate metabolite to parent compound; assay type: ADME, organism-based, Canis lupus familiaris; conditions: in vivo, po
# [7] = target: T1, Cytochrome P450 1A2 (Homo sapiens, UniProt P05177); assay: Inhibition of CYP1A2 (unknown origin); assay type: ADME
# T1 sequence (P05177 whole entry): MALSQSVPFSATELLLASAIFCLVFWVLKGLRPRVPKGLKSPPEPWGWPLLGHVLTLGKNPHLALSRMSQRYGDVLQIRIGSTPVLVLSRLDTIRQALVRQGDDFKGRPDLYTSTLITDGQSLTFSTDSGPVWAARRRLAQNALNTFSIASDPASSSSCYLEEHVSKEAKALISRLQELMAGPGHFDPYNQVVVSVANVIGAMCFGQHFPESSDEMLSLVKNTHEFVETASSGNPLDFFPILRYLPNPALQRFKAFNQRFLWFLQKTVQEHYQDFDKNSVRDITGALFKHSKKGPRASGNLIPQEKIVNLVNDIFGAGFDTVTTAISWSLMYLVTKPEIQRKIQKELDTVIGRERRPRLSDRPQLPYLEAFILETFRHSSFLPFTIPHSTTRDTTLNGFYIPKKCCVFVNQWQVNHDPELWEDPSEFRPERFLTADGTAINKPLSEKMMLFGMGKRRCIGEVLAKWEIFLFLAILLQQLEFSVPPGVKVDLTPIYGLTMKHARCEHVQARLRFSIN
# [8] = target: T2, Cytochrome P450 2B6 (Homo sapiens, UniProt P20813); assay: Inhibition of CYP2B6 (unknown origin); assay type: ADME
# T2 sequence (P20813 whole entry): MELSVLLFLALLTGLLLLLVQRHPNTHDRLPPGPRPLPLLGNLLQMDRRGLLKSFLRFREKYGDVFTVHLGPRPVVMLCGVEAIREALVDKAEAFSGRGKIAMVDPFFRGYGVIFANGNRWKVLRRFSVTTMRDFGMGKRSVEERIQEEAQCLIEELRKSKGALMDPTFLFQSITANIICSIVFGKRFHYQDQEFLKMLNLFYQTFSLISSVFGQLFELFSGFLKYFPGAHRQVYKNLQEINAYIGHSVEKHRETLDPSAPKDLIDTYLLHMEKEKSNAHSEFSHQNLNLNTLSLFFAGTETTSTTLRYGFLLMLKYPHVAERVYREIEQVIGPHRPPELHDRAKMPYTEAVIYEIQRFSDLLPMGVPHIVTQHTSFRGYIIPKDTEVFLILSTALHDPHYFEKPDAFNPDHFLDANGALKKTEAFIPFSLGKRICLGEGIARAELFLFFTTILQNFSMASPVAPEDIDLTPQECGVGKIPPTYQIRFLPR
# [9] = target: Cytochrome P450 2C9 (Homo sapiens, UniProt P11712); assay: Inhibition of CYP2C9 (unknown origin); assay type: ADME
# Cytochrome P450 2C9, sequence (P11712 whole entry): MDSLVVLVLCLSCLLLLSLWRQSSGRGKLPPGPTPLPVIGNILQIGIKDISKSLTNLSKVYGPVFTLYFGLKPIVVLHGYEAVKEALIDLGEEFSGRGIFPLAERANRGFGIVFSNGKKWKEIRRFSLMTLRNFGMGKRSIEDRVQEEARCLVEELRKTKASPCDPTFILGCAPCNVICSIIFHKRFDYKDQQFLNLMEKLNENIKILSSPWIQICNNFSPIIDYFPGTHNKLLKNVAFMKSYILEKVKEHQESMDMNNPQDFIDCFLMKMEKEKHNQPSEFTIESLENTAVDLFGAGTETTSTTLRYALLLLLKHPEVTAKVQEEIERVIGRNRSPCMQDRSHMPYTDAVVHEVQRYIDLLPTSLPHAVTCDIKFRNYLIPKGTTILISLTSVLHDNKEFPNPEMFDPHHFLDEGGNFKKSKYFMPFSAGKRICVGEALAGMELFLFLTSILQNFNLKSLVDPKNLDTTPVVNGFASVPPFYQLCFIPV
# [10] = target: Cytochrome P450 2D6 (Homo sapiens, UniProt P10635); assay: Inhibition of CYP2D6 (unknown origin); assay type: ADME
# Cytochrome P450 2D6, sequence (P10635 whole entry): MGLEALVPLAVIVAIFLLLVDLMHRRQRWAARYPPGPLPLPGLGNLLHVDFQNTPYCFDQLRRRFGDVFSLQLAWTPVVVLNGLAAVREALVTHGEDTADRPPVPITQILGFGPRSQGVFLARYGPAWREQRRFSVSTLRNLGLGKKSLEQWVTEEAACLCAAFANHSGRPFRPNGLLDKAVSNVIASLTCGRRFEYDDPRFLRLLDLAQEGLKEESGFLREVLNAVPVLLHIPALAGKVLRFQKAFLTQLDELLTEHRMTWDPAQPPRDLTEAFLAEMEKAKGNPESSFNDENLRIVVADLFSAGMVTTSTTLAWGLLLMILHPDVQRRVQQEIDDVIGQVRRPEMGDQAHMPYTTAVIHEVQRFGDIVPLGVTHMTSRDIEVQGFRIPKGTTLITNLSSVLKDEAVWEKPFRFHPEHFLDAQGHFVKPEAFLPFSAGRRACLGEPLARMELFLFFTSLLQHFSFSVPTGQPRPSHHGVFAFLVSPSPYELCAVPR
# [11] = Protein binding in cynomolgus monkey assessed as bound fraction; assay type: ADME, Macaca fascicularis; conditions: read-out: PB
# [12] = Metabolic stability in human liver microsomes assessed as half-life measured upto 120 mins in presence of NADPH-generating system by LC/MS/MS analysis; assay type: ADME, Microsome
# [13] = test system: Mus musculus; assay: (§1) Immunosuppressive activity in MOG (35 to 55 residues)/pertussis toxin-induced experimental autoimmune encephalomyelitis C57BL/6 mouse model assessed as reduction in clinical scores for inflammation administered orally once daily starting from day 1 post immunization and measured thrice weekly until day 24; assay type: functional, organism-based; conditions: dose 0.1-0.5 mg/kg
# [14] = test system: Mus musculus; assay: as §1, with “formation of inflammatory lesions in CNS” for “clinical scores for inflammation”; assay type: functional, organism-based; conditions: dose 0.1-0.5 mg/kg
# [15] = test system: Mus musculus; assay: Immunosuppressive activity in MOG (35 to 55 residues)/pertussis toxin-induced experimental autoimmune encephalomyelitis C57BL/6 mouse model assessed as maximum efficacy causing reduction in EAE clinical score administered orally once daily starting from day 1 post immunization and measured thrice weekly until day 24; assay type: functional
# [16] = test system: Rattus norvegicus; assay: Drug metabolism in Lewis rat blood assessed as concentration of phosphate ester metabolite formation at 2 mg/kg, po measured at 4 hrs by LC-MS/MS analysis; conditions: in vivo
smiles,measurement,setting,value
COc1ccccc1CC[C@@H]1CCc2cc([C@H]3CC[C@](N)(CO)C3)ccc2C1 [UDIFITIMOD],Activity,[1],14 mg/dL
same,clearance,[2],3.8 mL/min/kg
same,Vd,[3],16 L/kg
same,Vd,[4],21 L/kg
same,half-life,[5],165 h
same,Ratio AUC,[6],3.1
same,IC50,[7],> 20 µM
same,IC50,[8],17 µM
same,IC50,[9],14 µM
same,IC50,[10],18 µM
same,fraction unbound,[11],< 0.001
same,half-life,[12],4.03 h
same,Activity,[13],Dose-dependent effect
same,Activity,[14],Dose-dependent effect
same,Emax,[15],0.5 mg/kg/day
same,Drug metabolism,[16],180 nM
